Results published in publication PMC9019904, “AD Informer Set: Chemical tools to facilitate Alzheimer's disease drug discovery” (Alzheimer's & Dementia : Translational Research & Clinical …, 2022).

Assays:
[1] = tested on: HMC3 (human microglia) cell line; assay: pHrodo-myelin phagocytosis/cell viability high content imaging assay: viability (cell count, nuclear area, nuclear intensity); conditions: 48 hours treatment
Method in brief: (§1)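 10 μM single dose, 48 h total; pHrodo-myelin present final 20 h. Read-out: automated imaging, total cell count/well, mean nuclear intensity/cell. n=2, normalized to untreated wells, % control.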

[2] = tested on: BV2 (mouse microglia) cell line; assay: as above; conditions: 48 hours treatment
Method in brief: as §1

[3] = tested on: HMC3 (human microglia) cell line; assay: pHrodo-myelin phagocytosis/cell viability high content imaging assay: phagocytosis signal; assay type: cell-based
Method in brief: (§2)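 Imaging at high content captured pHrodo-myelin uptake about 22 hours after its addition, alongside a viability read-out from the same cells. Three measurements were derived, with intensity increase marking early apoptosis and decrease marking later apoptosis.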

[4] = tested on: BV2 (mouse microglia) cell line; assay: as above; assay type: cell-based
Method in brief: as §2

[5] = HMC3 cells, 10 uM compound, 48 hours treatment, pHrodo-myelin final 20 hours
[6] = BV2 cells, 10 uM compound, 48 hours treatment, pHrodo-myelin final 20 hours
[7] = HMC3, compound 10 uM, pHrodo-myelin
[8] = BV2, compound 10 uM, pHrodo-myelin

SMILES | 1. Cell count (% control) ([1]; HMC3 cells, 10 uM compound) | 2. Nuclear Area (% Control) ([1]; HMC3 cells, 10 uM compound) | 3. Nuclear DNA Intensity (% control) ([1]; HMC3 cells, 10 uM compound) | 1. Cell count (% control) ([2]; BV2 cells, 10 uM compound) | 2. Nuclear Area (% Control) ([2]; BV2 cells, 10 uM compound) | 3. Nuclear DNA Intensity (% control) ([2]; BV2 cells, 10 uM compound) | 4. Phagocytosis (% control) [3, 5] | 4. Phagocytosis (% control) [4, 6] | 1. Cell count (% control) ([1]; HMC3, compound 10 uM) | 2. Nuclear Area (% Control) ([1]; HMC3, compound 10 uM) | 3. Nuclear DNA Intensity (% control) ([1]; HMC3, compound 10 uM) | 1. Cell count (% control) ([2]; BV2, compound 10 uM) | 2. Nuclear Area (% Control) ([2]; BV2, compound 10 uM) | 3. Nuclear DNA Intensity (% control) ([2]; BV2, compound 10 uM) | 4. Phagocytosis (% control) [3, 7] | 4. Phagocytosis (% control) [4, 8]
Cc1cc(C)nc(NC(=S)N2CCN(Cc3ccc(C(F)(F)F)cc3)CC2)c1 [UNC10302844A] | 133.1 % control | 97.8 % Control | 105.3 % control | 129.8 % control | 107.6 % Control | 103.9 % control | 108.4 % control | 180.4 % control |  |  |  |  |  |  |  | 
CCS(=O)(=O)N1CCN(c2ccc(Nc3ncc(C(N)=O)c(NC4CC4)n3)cc2)CC1 [UNC10245084A] |  |  |  |  |  |  |  |  | 54.5 % control | 136.2 % Control | 128.1 % control | 6.9 % control | 115.7 % Control | 50.0 % control | 110.4 % control | 2.3 % control
CN(C)CC1CCOC1(c1ccccc1)c1ccccc1.Cl (centres unmarked) [UNC10303096A] | 129.8 % control | 100.5 % Control | 94.9 % control | 103.1 % control | 105.3 % Control | 104.2 % control | 111.9 % control | 256.6 % control |  |  |  |  |  |  |  | 
CCc1cnn2c(NCc3ccc[n+]([O-])c3)cc(N3CCCC[C@H]3CCO)nc12 [UNC10302845A] |  |  |  |  |  |  |  |  | 51.6 % control | 136.2 % Control | 97.0 % control | 16.3 % control | 103.8 % Control | 20.9 % control | 167.0 % control | 3.5 % control
CC(C)(C(=O)O)c1ccc(C(O)CCCN2CCC(C(O)(c3ccccc3)c3ccccc3)CC2)cc1.Cl (centres unmarked) [UNC10100548A] | 137.5 % control | 98.8 % Control | 98.9 % control | 104.5 % control | 103.6 % Control | 104.0 % control | 96.5 % control | 106.0 % control |  |  |  |  |  |  |  | 
CNC(=O)c1cccc(-c2ccc3c(N4CCOC[C@@H]4C)nc(N4CCOC[C@@H]4C)nc3n2)c1 [UNC10302837A] |  |  |  |  |  |  |  |  | 99.5 % control | 83.5 % Control | 103.3 % control | 47.4 % control | 94.2 % Control | 117.6 % control | 149.5 % control | 328.3 % control
COC(=O)C1=C(C)NC2=C(C(=O)c3ccccc32)C1c1ccccc1OCc1ccccc1F (centres unmarked) [UNC10303111A] |  |  |  |  |  |  |  |  | 166.8 % control | 93.9 % Control | 99.7 % control | 84.0 % control | 101.6 % Control | 106.1 % control | 61.6 % control | 307.3 % control
Cc1cc2c(cc1C1(c3ccc(C(=O)O)cn3)CC1)C(C)(C)CCC2(C)C [UNC10302904A] | 110.6 % control | 108.2 % Control | 90.0 % control | 72.5 % control | 111.9 % Control | 92.6 % control | 73.6 % control | 105.9 % control |  |  |  |  |  |  |  | 
Cc1cc(C)nc(NC(=S)N2CCN(c3ccc(C(F)(F)F)cn3)CC2)c1 [UNC10302906A] | 134.6 % control | 95.0 % Control | 106.3 % control | 93.3 % control | 107.2 % Control | 105.6 % control | 109.8 % control | 184.1 % control |  |  |  |  |  |  |  | 
COS(=O)(=O)[O-].C[n+]1c2ccccc2nc2ccccc21 [UNC10302857A] | 60.7 % control | 61.5 % Control | 197.5 % control | 16.9 % control | 123.3 % Control | 59.8 % control | 0.031 % control | 27.9 % control |  |  |  |  |  |  |  | 
Cc1cnc(Nc2ccc(F)cc2Cl)nc1-c1c[nH]c(C(=O)N[C@H](CO)c2cccc(Cl)c2)c1 [UNC10302866A] | 106.8 % control | 98.0 % Control | 96.6 % control | 83.7 % control | 101.5 % Control | 113.9 % control | 72.8 % control | 108.3 % control |  |  |  |  |  |  |  | 
O=c1ncn2nc(Sc3ccc(F)cc3F)ccc2c1-c1c(Cl)cccc1Cl [UNC10303093A] | 125.9 % control | 98.4 % Control | 98.8 % control | 114.5 % control | 100.4 % Control | 110.5 % control | 71.1 % control | 151.8 % control |  |  |  |  |  |  |  | 
Nc1ncnc2c1nc(Sc1ccc(Cl)cc1)n2[C@@H]1O[C@@H]2COP(=O)([O-])O[C@H]2[C@H]1O.[Na+] [UNC10302890A] | 115.9 % control | 99.4 % Control | 99.1 % control | 107.7 % control | 106.8 % Control | 98.4 % control | 84.6 % control | 104.7 % control |  |  |  |  |  |  |  | 
O=c1ccc2c(OCCCCc3ccccc3)c3ccoc3cc2o1 [UNC10100197A] |  |  |  |  |  |  |  |  | 124.6 % control | 99.9 % Control | 93.8 % control | 106.2 % control | 106.9 % Control | 106.7 % control | 60.7 % control | 195.3 % control
Fc1ccc(C(CCCNCC2CCc3[nH]c4ccc(F)cc4c3C2)c2ccc(F)cc2)cc1 (centres unmarked) [UNC10302893A] | 14.1 % control | 53.2 % Control | 215.4 % control | 10.4 % control | 127.3 % Control | 33.1 % control | 0.0 % control | 0.0 % control |  |  |  |  |  |  |  | 
Cc1cc(Nc2ncc(Cl)c(Nc3ccccc3S(=O)(=O)C(C)C)n2)c(OC(C)C)cc1C1CCNCC1 [UNC10244729A] | 28.7 % control | 60.3 % Control | 155.5 % control | 19.2 % control | 92.5 % Control | 49.1 % control | 0.00248 % control | 0.00122 % control |  |  |  |  |  |  |  | 
N#CC(CCCN1CCN(/N=C/c2cccnc2)CC1)(c1ccccc1)c1ccccc1 [UNC10302973A] | 118.4 % control | 102.3 % Control | 89.1 % control | 73.0 % control | 106.0 % Control | 96.8 % control | 84.2 % control | 132.9 % control |  |  |  |  |  |  |  | 
CN(C)CCCOc1c(Br)cc(/C=C/C(=O)NCCCOc2c(Br)cc(CCN(C)C)cc2Br)cc1Br [UNC10302702A] |  |  |  |  |  |  |  |  | 39.0 % control | 54.1 % Control | 166.0 % control | 26.8 % control | 80.6 % Control | 57.8 % control | 0.00724 % control | 0.0 % control
Cc1cc(C)nc(NS(=O)(=O)c2ccc(NC(=O)NC(=O)c3ccc(Cl)cc3Cl)cc2)n1 [UNC10303168A] |  |  |  |  |  |  |  |  | 129.3 % control | 101.5 % Control | 94.7 % control | 124.0 % control | 99.5 % Control | 104.3 % control | 88.1 % control | 118.2 % control
